This note sets out measurements from US9000186B2, “Ring-fused heterocyclic derivative” (Kyowa Hakko Kirin Co., Ltd., priority 2011, dated 2015).

Where two headings read alike, the source gives them in different places.

By IC50 is commonly meant the concentration that inhibits the measured activity by half.

Test [1] concerns the target T1, human Cav3.2 T-type Ca2+ channel (Homo sapiens, UniProt O95180).
T1 construct: expressed in transfected cells; host or cells: KJMGER8 cells (Namalwa cell-derived cell line)
In words: Inhibitory effect for intracellular calcium response via Cav3.2 T-type Ca2+ channels (FLIPR Calcium 3 Assay Kit). Type of test: cell-based. (A change in cytosolic calcium serves as a functional read-out for many receptors and channels.)

Test [2] deals with morphine-induced pruritus mice. In words: Inhibitory effect for pruritus in morphine-induced pruritus mice. Format: in vivo, male ddY mice. Conditions: oral, dose of 30 mg/kg or less, 30 minutes before intrathecal morphine (1 nmol/5 μL); scratching counted for 30 minutes. The procedure: Morphine (1 nmol/5 μL, dissolved in physiological saline) or physiological saline was intrathecally administered between the fifth and sixth lumbar vertebrae of male ddY mice using a microsyringe fitted with a 30-gauge injection needle. Mice administered with only morphine were used as a control group, and mice administered with only physiological saline as a physiological saline-administered group.
After the morphine administration, the number of scratching behavior with the hind legs which observed immediately in the mice was measured for 30 minutes. Because mice show a rapid, continuous scratching behavior in each scratching behavior, a series of such behavior was counted as a single scratching behavior.
The test compounds were administered 30 minutes before the morphine administration. Each test compound was suspended in a 0.5% methylcellulose solution, and orally administered in 10 mL/kg volume.

[3] abbreviates: human Cav3.2-expressing KJMGER8 cells (Namalwa-derived), calcium response induced by 5 mmol/L CaCl2, normalised to 3 μmol/L mibefradil, read-out: IC50 for the human Cav3.2 T-type Ca2+ current.

T1 sequence (O95180 whole entry): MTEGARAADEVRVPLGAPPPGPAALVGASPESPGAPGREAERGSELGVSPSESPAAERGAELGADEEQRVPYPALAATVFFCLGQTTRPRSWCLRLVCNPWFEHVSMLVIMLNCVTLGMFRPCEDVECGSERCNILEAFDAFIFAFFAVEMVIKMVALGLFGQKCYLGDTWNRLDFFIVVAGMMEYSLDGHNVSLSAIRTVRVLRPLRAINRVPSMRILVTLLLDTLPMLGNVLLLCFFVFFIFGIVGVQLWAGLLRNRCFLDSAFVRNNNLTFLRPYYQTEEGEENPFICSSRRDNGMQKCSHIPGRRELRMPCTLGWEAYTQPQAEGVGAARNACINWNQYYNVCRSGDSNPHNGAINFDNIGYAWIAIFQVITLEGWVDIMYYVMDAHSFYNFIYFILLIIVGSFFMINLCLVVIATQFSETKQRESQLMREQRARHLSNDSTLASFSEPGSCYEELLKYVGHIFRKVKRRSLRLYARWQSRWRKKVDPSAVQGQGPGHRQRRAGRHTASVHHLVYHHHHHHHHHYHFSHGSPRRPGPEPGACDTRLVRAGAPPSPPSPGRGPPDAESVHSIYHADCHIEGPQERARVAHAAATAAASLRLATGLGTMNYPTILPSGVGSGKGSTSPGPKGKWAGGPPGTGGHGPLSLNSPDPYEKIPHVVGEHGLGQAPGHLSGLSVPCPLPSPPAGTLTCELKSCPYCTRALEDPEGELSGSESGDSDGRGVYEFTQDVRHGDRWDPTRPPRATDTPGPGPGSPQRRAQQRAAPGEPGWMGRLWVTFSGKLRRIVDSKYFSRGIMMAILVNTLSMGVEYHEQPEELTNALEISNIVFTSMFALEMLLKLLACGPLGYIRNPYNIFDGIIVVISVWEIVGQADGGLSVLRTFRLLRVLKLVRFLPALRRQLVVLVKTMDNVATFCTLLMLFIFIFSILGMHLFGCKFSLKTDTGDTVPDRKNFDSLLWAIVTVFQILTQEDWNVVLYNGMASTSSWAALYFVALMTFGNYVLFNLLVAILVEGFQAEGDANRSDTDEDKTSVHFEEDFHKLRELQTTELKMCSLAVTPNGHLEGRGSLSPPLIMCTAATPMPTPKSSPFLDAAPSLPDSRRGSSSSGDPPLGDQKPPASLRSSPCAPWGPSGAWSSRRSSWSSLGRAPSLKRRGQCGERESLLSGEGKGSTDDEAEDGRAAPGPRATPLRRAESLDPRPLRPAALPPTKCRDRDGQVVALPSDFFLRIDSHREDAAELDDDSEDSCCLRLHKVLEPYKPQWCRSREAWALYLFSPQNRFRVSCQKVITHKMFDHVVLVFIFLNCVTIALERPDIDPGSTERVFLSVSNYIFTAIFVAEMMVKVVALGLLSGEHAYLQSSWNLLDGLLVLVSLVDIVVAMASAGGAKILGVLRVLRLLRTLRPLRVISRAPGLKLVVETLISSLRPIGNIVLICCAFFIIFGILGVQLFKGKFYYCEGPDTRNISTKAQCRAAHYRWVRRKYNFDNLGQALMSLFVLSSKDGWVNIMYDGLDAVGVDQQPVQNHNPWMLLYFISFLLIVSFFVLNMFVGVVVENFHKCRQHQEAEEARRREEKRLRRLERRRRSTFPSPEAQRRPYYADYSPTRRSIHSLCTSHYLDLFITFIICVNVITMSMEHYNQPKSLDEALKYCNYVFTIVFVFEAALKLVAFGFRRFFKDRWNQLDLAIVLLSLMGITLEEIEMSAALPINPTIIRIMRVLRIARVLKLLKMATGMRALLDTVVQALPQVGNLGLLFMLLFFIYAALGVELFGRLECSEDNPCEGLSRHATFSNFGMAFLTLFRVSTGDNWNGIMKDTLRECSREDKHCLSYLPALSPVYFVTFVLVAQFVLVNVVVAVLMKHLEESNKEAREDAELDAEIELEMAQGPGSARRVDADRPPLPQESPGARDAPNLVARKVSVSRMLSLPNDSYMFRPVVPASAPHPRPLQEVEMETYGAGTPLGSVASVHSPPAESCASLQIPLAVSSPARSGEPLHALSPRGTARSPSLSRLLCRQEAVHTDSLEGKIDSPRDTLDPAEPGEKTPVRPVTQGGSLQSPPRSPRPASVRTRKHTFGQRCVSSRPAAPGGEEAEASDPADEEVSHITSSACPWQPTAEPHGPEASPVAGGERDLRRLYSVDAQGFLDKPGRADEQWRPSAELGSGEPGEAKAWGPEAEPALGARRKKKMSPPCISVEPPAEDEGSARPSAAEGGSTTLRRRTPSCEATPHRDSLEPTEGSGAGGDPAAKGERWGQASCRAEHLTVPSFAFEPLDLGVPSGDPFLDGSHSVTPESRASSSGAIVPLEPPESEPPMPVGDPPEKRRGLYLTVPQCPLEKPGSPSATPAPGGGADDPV

For `O=C(NC1CCC1)c1ccn2c(CC3CCC(F)(F)CC3)c(C(F)(F)F)nc2c1` [Compound 50, N-Cyclobutyl-3-(4,4-difluorocyclohexylmethyl)-2-trifluoromethylimidazo[1,2-a]pyridine-7-carboxamide], in test [1], the concentration for half-maximal inhibition (IC50) is below 100 nM. The “increase of the scratching behavior observed in the morphine-induced pruritus mice” value (“increase” for short) in test [2] was “inhibited”.
On the same counts, the results for `O=C(NC1CC(F)(F)C1)c1ccn2c(CC3CCC(F)(F)CC3)c(C(F)(F)F)nc2c1` [Compound 51, N-(3,3-Difluorocyclobutyl)-3-(4,4-difluorocyclohexylmethyl)-2-trifluoromethylimidazo[1,2-a]pyridine-7-carboxamide] are below 100 nM and “inhibited”.
Take `CC1(NC(=O)c2ccn3c(CC4CCC(F)(F)CC4)c(C(F)(F)F)nc3c2)CCOCC1` [Compound 52, 3-(4,4-Difluorocyclohexylmethyl)-N-(4-methyltetrahydro-2H-pyran-4-yl)-2-trifluoromethylimidazo[1,2-a]pyridine-7-carboxamide]: the IC50 in test [1] is below 100 nM. Further, in test [2], the “increase” value is reported as “inhibited”.
The like results for `Cc1cc(C(=O)NC2CCC(O)CC2)cc2nc(C(F)(F)F)c(CC3CCC(F)(F)CC3)n12` (centres unmarked) [Compound 70, 3-(4,4-Difluorocyclohexylmethyl)-N-(4-hydroxycyclohexyl)-5-methyl-2-trifluoromethylimidazo[1,2-a]pyridine-7-carboxamide] were, in that order, below 100 nM and “inhibited”.
In the case of `Cc1cc(C(=O)NC2CCC(F)(F)CC2)cc2nc(C(F)(F)F)c(CC3CCC(F)(F)CC3)n12` [Compound 72, N-(4,4-Difluorocyclohexyl)-3-(4,4-difluorocyclohexylmethyl)-5-methyl-2-trifluoromethylimidazo[1,2-a]pyridine-7-carboxamide], in test [1], the IC50 is below 100 nM. The “increase” value in test [2] is recorded as “inhibited”.
As to `Cc1cc(C(=O)NC2CCOC2)cc2nc(C(F)(F)F)c(CC3CCC(F)(F)CC3)n12` (centres unmarked) [Compound 73, 3-(4,4-Difluorocyclohexylmethyl)-5-methyl-N-(tetrahydrofuran-3-yl)-2-trifluoromethylimidazo[1,2-a]pyridine-7-carboxamide], the IC50 in test [1] is below 100 nM. The “increase” value in test [2] is “inhibited”.
In the case of `Cc1cc(C(=O)NC2CCOC(C)(C)C2)cc2nc(C(F)(F)F)c(CC3CCC(F)(F)CC3)n12` (centres unmarked) [Compound 75, 3-(4,4-Difluorocyclohexylmethyl)-N-(2,2-dimethyltetrahydro-2H-pyran-4-yl)-5-methyl-2-trifluoromethylimidazo[1,2-a]pyridine-7-carboxamide], in test [1] (setting [3]), the IC50 was below 100 nM. For the same compound, the “increase” value in test [2] is “inhibited”.
As to `Cc1cc(C(=O)NC2CCCOC2)cc2nc(C(F)(F)F)c(CC3CCC(F)(F)CC3)n12` (centres unmarked) [Compound 76, 3-(4,4-Difluorocyclohexylmethyl)-5-methyl-N-(tetrahydro-2H-pyran-3-yl)-2-trifluoromethylimidazo[1,2-a]pyridine-7-carboxamide], the concentration for half-maximal inhibition (IC50) in test [1] (setting [3]) is below 100 nM. In test [2], the “increase” value is “inhibited”.
As for `Cc1cc(C(=O)NCC(C)(C)O)cc2nc(C(F)(F)F)c(CC3CCC(F)(F)CC3)n12` [Compound 78, 3-(4,4-Difluorocyclohexylmethyl)-N-(2-hydroxy-2-methylpropyl)-5-methyl-2-trifluoromethylimidazo[1,2-a]pyridine-7-carboxamide], in test [1], the IC50 was below 100 nM. In addition, the “increase” value in test [2] is reported as “inhibited”.
For `COC(C)(C)CNC(=O)c1cc(C)n2c(CC3CCC(F)(F)CC3)c(C(F)(F)F)nc2c1` [Compound 79, 3-(4,4-Difluorocyclohexylmethyl)-N-(2-methoxy-2-methylpropyl)-5-methyl-2-trifluoromethylimidazo[1,2-a]pyridine-7-carboxamide], in test [1], the IC50 is below 100 nM. Also, the “increase” value in test [2] is “inhibited”.
Consider `Cc1cc(C(=O)NCC2CCOC2)cc2nc(C(F)(F)F)c(CC3CCC(F)(F)CC3)n12` (centres unmarked) [Compound 80, 3-(4,4-Difluorocyclohexylmethyl)-N-{(tetrahydrofuran-3-yl)methyl}-5-methyl-2-trifluoromethylimidazo[1,2-a]pyridine-7-carboxamide], for which the IC50 in test [1] is below 100 nM. Moreover, the “increase” value in test [2] is recorded as “inhibited”.
Regarding `Cc1cc(C(=O)NCC2CCOCC2)cc2nc(C(F)(F)F)c(CC3CCC(F)(F)CC3)n12` [Compound 81, 3-(4,4-Difluorocyclohexylmethyl)-5-methyl-N-{(tetrahydro-2H-pyran-4-yl)methyl}-2-trifluoromethylimidazo[1,2-a]pyridine-7-carboxamide], the IC50 in test [1] is below 100 nM. For the same compound, the “increase” value in test [2] is recorded as “inhibited”.
On the same counts, the results for `Cc1cc(C(=O)NCC2(C#N)CCOCC2)cc2nc(C(F)(F)F)c(CC3CCC(F)(F)CC3)n12` [Compound 84, N-{(4-Cyanotetrahydro-2H-pyran-4-yl)methyl}-3-(4,4-difluorocyclohexylmethyl)-5-methyl-2-trifluoromethylimidazo[1,2-a]pyridine-7-carboxamide] are below 100 nM and “inhibited”.
As for `Cc1cc(C(=O)NC2CCOCC2)cc2nc(C(C)(F)F)c(CC3CCC(F)(F)CC3)n12` [Compound 96, 3-(4,4-Difluorocyclohexylmethyl)-2-(1,1-difluoroethyl)-5-methyl-N-(tetrahydro-2H-pyran-4-yl)imidazo[1,2-a]pyridine-7-carboxamide], in test [1], the IC50 is below 100 nM. Besides, the “increase” value in test [2] is “inhibited”.
As to `Cc1cc(C(=O)NC2CCOCC2)cc2nc(C3(C)CC3)c(CC3CCC(F)(F)CC3)n12` [Compound 100, 3-(4,4-Difluorocyclohexylmethyl)-5-methyl-2-(1-methylcyclopropyl)-N-(tetrahydro-2H-pyran-4-yl)imidazo[1,2-a]pyridine-7-carboxamide], the IC50 in test [1] was below 100 nM. The “increase” value in test [2] is reported as “inhibited”.
For the compound `Cc1cc(C(=O)NC2CCOCC2)cc2nc(C(C)C)c(CC3CCC(F)(F)CC3)n12` [Compound 101, 3-(4,4-Difluorocyclohexylmethyl)-2-isopropyl-5-methyl-N-(tetrahydro-2H-pyran-4-yl)imidazo[1,2-a]pyridine-7-carboxamide], the half-maximal inhibitory concentration (IC50) in test [1] is below 100 nM. In test [2], the “increase” value is “inhibited”.
Consider `O=C(N[C@H]1CC[C@H](O)CC1)c1cc(Cl)n2c(CC3CCC(F)(F)CC3)c(C(F)(F)F)nc2c1` [Compound 103, 5-Chloro-3-(4,4-difluorocyclohexylmethyl)-N-(trans-4-hydroxycyclohexyl)-2-trifluoromethylimidazo[1,2-a]pyridine-7-carboxamide], for which the IC50 in test [1] is below 100 nM. Also, the “increase” value in test [2] is reported as “inhibited”.
The like results for `O=C(NC1CCOCC1)c1cc(Cl)n2c(CC3CCC(F)(F)CC3)c(C(F)(F)F)nc2c1` [Compound 104, 5-Chloro-3-(4,4-difluorocyclohexylmethyl)-N-(tetrahydro-2H-pyran-4-yl)-2-trifluoromethylimidazo[1,2-a]pyridine-7-carboxamide] were, in that order, below 100 nM and “inhibited”.
Consider `CC1(C)CC(NC(=O)c2cc(Cl)n3c(CC4CCC(F)(F)CC4)c(C(F)(F)F)nc3c2)CCO1` (centres unmarked) [Compound 105, 5-Chloro-3-(4,4-difluorocyclohexylmethyl)-N-(2,2-dimethyltetrahydro-2H-pyran-4-yl)-2-trifluoromethylimidazo[1,2-a]pyridine-7-carboxamide], for which, in test [1], the half-inhibitory concentration (IC50) was below 100 nM. The “increase” value in test [2] is reported as “inhibited”.
The like results for `O=C(NC1CCOCC1)c1cc2nc(C(F)(F)F)c(CC3CCC(F)(F)CC3)n2cc1Cl` [Compound 108, 6-Chloro-3-(4,4-difluorocyclohexylmethyl)-N-(tetrahydro-2H-pyran-4-yl)-2-trifluoromethylimidazo[1,2-a]pyridine-7-carboxamide] were, in that order, below 100 nM and “inhibited”.
On the same counts, the results for `CC(F)(F)c1nc2cc(C(=O)NC3CCOCC3)c(Cl)cn2c1CC1CCC(F)(F)CC1` [Compound 109, 6-Chloro-3-(4,4-difluorocyclohexylmethyl)-2-(1,1-difluoroethyl)-N-(tetrahydro-2H-pyran-4-yl)imidazo[1,2-a]pyridine-7-carboxamide] are below 100 nM and “inhibited”.
Consider `O=C(NC1CCOCC1)c1cc2nc(C3(C(F)(F)F)CC3)c(CC3CCC(F)(F)CC3)n2cc1Cl` [Compound 110, 6-Chloro-3-(4,4-difluorocyclohexylmethyl)-N-(tetrahydro-2H-pyran-4-yl)-2-{1-(trifluoromethyl)cyclopropyl}imidazo[1,2-a]pyridine-7-carboxamide], for which, in test [1], the half-maximal inhibitory concentration (IC50) is below 100 nM. Also, the “increase” value in test [2] is reported as “inhibited”.
